Consider two compounds from patent US8501721B2, “Postprandial hyperglycemia-improving agent” (Kao Corporation, priority 2009, dated 2013).

For this experiment, the system named is Wistar rats. The experiment can be described thus: Postprandial maximum increase of blood glucose in rat after oral administration of cooked white rice and triolein. Format: in vivo. The note with it: for Postprandial maximum increase of blood glucose (maximum increase value from initial value, relative value based on 100 for control group): with 2 mg white rice and 1.5 μg triolein per g body weight, fasted male Wistar rats, average±standard error. As for the experimental part:
To white rice (Koshihikari produced in Tochigi prefecture), water (1.5 times equivalent to the volume of the white rice) was added to allow the rice to absorb the water for 30 minutes. Then, the rice was cooked with a rice cooker (ZOJIRUSHI microcomputer-controlled rice cooker NS-KG05, manufactured by Zojirushi Corporation). Water and triolein (manufactured by Sigma-Aldrich Corporation) were added to the cooked rice, followed by homogenization until the mixture was sufficiently homogenized, thereby yielding a sample for administration. The sample for administration was orally probe-administered to a group at 2 mg of white rice per g body weight and 1.5 μg of triolein per g body weight (the group as a control group). Each of the purified cycloartenol produced in Example 1 described above was added to a sample for administration (dissolved in triolein). Each of the resultants was orally probe-administered to a group at 2 mg of white rice per g body weight, 1.5 μg of triolein per g body weight, and 0.075 μg, or 0.15 μg, of cycloartenol equivalent per g body weight (the groups as Test group 1 and 2). Further, purified 24-methylenecycloartanol was added to a sample for administration (dissolved in triolein). The resultant was orally probe-administered to a group at 2 mg of white rice per g body weight, 1.5 μg of triolein per g body weight, and 0.15 μg of 24-methylenecycloartanol equivalent per g body weight (the group as Comparative group).
8-week old male Wistar rats (supplied by Japan SLC Inc.), after 15 hours of fasting, were divided into groups each consisting of 10 rats with their body weight being almost the same between the groups. Immediately after the administration to each group, blood sample was collected from tail vein sequentially. The blood sample was measured for its blood glucose level by using ACCU-CHEK AVIVA (manufactured by Roche Diagnostics GmbH) to calculate the maximum increase of blood glucose.
Results are represented as average±standard error, and statistical significant differences between groups were determined by the Dunnett's test with respect to the control group (*p <0.05).

Setting [1] is: 0.15 μg per g body weight, *p<0.05 vs control (Dunnett).

`C=C(CC[C@@H](C)[C@H]1CC[C@@]2(C)[C@@H]3CC[C@H]4C(C)(C)[C@@H](O)CC[C@@]45C[C@@]35CC[C@]12C)C(C)C` [24-methylenecycloartanol, reference compound]: under setting [1], the “Postprandial maximum increase of blood glucose (maximum increase value from initial value, relative value based on 100 for control group)” value was 89.25 ± 4.32 relative value based on 100 for control group.
In the case of `CC(C)=CCC[C@@H](C)[C@H]1CC[C@@]2(C)[C@@H]3CC[C@H]4C(C)(C)[C@@H](O)CC[C@@]45C[C@@]35CC[C@]12C` [cycloartenol], the “postprandial increase of blood glucose (result in words)” value was “tended to be decreased” (0.075 μg per g body weight, rat) and “significantly inhibited” (0.15 μg per g body weight, rat). Besides, the “Postprandial maximum increase of blood glucose (maximum increase value from initial value, relative value based on 100 for control group)” value is given as 92.03 ± 3.16 relative value based on 100 for control group (0.075 μg per g body weight) and 79.74 ± 7.71* relative value based on 100 for control group under setting [1]. Also, the “effect of inhibiting the postprandial increase of blood glucose compared with 24-methylenecycloartanol” value (rat, comparison at 0.15 μg per g body weight) is listed as “stronger than that of 24-methylenecycloartanol”.
